The source of these data is article PMC6264460, “Lead Generation and Optimization Based on Protein-Ligand Complementarity” (Molecules, 2010).

This assay deals with T1, JNK3 (Homo sapiens, UniProt P53779).
T1 construct: made in house
Put plainly: Inhibition of ATP hydrolysis by JNK3 (coupled NADH oxidation assay). The format is biochemical. The conditions noted are these: ATP hydrolysis by JNK3, 100 nM JNK3, pH 7.6, 1% DMSO. From the text: To measure the inhibitory activity of the Z1208, we used the following assay system: adenosine triphosphate (ATP), phosphoenolpyruvate (PEP), nicotinamide adenine dinucleotide (NADH), and a solution mixture of pyruvate kinase and L-lactate dehydrogenase (PK-L-LDH) were purchased from Roche Diagnostics. Other reagents were purchased from Sigma-Aldrich. JNK3 was expressed and purified by the method of Xie et al.. After a purification step, JNK3 was activated by GST-fused MKK7 and further purified against a glutathione-fixed column. […] The conversion of NADH was measured by kinetic monitoring with SpectraMax 190 (Molecular Devices).

T1 sequence (P53779 40-402 limits assumed): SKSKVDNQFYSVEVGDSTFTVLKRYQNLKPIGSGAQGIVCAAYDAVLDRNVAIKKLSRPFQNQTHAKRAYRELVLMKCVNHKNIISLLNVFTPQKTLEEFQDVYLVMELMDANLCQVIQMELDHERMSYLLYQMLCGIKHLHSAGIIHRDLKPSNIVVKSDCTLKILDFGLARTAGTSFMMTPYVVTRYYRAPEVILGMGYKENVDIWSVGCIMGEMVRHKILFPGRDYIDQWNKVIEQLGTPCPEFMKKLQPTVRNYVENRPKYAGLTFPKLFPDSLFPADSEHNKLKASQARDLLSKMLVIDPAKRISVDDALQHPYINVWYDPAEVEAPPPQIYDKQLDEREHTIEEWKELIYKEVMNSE

As to `CN1c2c[nH]nc2C(O)=C(C(=O)Nc2ccc(Cl)c(Cl)c2)S1(=O)=O` [Z1208-8], the IC50 (usually the concentration at which inhibition is half-maximal) was 62.9 µM.
